Assay results: ChEMBL document CHEMBL4477207, “Discovery of Novel 3-Quinoline Carboxamides as Potent, Selective, and Orally Bioavailable Inhibitors of Ataxia Telangiectasia Mutated (ATM) Kinase” (J Med Chem, 2016)
pIC50: −log10 of the molar value.

Assays:
[1] = target: T1, Serine-protein kinase ATM (Homo sapiens, UniProt Q13315); test: Inhibition of ATM phosphorylation at Ser-1981 residue in human HT-29 cells incubated for 1 hr followed by X-ray irradiation by Hoechst staining based fluorescence plate reader analysis; type: cell-based
[2] = target: Serine/threonine-protein kinase ATR (Homo sapiens, UniProt Q13535); test: Inhibition of ATR in human HT-29 cells assessed as reduction in Chk1 phosphorylation at Ser-345 residue after 60 mins in presence of 4-nitroquinoline-1-oxide by Hoechst 33258 staining based plate reader analysis; type: cell-based
Sequence of Serine/threonine-protein kinase ATR (Q13535 whole entry): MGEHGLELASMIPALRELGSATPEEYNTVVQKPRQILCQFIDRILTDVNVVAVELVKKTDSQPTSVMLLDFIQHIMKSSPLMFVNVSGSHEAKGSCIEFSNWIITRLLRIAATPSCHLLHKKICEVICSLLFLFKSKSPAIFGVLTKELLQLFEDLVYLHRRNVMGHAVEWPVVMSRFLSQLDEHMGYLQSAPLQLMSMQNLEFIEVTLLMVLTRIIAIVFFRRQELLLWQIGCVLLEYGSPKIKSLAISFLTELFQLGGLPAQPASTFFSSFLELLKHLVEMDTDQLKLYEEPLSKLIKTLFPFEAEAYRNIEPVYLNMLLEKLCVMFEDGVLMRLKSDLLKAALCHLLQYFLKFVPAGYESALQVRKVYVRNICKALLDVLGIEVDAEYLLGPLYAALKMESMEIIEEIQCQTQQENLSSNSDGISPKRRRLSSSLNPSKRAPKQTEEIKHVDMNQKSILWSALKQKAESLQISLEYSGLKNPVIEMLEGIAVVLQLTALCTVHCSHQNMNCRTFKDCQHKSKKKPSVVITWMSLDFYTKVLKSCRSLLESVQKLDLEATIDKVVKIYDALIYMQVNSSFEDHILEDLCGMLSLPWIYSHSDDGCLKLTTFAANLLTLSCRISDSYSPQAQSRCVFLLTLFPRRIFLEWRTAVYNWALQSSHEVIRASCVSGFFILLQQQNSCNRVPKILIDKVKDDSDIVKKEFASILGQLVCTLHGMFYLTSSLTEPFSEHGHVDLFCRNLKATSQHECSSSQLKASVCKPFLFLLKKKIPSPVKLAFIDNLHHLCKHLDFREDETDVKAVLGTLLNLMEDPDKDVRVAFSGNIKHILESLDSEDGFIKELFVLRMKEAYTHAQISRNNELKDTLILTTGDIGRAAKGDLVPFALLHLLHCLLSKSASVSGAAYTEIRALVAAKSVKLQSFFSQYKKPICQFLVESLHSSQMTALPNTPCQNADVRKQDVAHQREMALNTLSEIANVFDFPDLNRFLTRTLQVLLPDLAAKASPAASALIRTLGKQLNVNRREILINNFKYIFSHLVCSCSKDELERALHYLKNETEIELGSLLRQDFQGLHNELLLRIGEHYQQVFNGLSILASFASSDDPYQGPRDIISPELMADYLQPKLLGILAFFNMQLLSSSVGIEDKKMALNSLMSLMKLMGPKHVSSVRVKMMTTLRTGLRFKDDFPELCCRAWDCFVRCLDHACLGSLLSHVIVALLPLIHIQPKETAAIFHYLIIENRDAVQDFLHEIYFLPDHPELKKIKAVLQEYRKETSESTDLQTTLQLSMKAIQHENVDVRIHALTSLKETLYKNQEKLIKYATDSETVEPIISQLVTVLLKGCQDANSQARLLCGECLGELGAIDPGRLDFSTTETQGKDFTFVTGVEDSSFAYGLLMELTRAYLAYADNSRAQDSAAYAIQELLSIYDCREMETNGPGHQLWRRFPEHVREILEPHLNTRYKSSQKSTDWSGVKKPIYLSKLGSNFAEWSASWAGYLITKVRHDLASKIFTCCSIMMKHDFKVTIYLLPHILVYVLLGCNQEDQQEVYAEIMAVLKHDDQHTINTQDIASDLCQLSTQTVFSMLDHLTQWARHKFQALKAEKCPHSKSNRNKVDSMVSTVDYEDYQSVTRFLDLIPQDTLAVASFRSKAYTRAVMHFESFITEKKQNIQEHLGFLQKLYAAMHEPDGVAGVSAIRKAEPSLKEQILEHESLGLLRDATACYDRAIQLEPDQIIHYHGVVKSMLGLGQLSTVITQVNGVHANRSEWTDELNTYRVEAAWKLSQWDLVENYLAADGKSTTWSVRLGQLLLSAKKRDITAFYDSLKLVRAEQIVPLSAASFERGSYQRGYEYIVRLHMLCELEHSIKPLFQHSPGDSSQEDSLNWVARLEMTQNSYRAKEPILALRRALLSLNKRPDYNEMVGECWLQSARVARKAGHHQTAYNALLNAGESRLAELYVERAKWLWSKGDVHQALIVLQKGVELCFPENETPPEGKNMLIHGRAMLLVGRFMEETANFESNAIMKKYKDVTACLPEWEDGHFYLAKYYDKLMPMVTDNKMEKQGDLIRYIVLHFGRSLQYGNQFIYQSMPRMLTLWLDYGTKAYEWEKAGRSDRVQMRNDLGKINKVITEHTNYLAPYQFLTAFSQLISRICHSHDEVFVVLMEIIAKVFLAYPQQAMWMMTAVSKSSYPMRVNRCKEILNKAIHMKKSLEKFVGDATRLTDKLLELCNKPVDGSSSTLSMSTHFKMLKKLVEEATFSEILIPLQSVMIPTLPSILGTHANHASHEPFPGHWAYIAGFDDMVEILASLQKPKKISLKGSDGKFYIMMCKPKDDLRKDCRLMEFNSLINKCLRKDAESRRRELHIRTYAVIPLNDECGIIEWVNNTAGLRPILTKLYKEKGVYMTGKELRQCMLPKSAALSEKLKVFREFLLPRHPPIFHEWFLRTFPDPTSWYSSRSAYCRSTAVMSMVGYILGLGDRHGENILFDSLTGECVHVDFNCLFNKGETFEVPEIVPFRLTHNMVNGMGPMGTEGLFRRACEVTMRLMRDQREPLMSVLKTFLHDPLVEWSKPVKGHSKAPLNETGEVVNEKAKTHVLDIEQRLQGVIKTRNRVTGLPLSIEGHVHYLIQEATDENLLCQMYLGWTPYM

in vitro [3] = settings: human, hepatocytes
in vitro [4] = settings: rat, hepatocytes
physchem = settings: octanol/buffer, pH 7.4
[5] = target: Voltage-gated inwardly rectifying potassium channel KCNH2 (Homo sapiens, UniProt Q12809)
Sequence of Voltage-gated inwardly rectifying potassium channel KCNH2 (Q12809 whole entry, the tested form may be a part): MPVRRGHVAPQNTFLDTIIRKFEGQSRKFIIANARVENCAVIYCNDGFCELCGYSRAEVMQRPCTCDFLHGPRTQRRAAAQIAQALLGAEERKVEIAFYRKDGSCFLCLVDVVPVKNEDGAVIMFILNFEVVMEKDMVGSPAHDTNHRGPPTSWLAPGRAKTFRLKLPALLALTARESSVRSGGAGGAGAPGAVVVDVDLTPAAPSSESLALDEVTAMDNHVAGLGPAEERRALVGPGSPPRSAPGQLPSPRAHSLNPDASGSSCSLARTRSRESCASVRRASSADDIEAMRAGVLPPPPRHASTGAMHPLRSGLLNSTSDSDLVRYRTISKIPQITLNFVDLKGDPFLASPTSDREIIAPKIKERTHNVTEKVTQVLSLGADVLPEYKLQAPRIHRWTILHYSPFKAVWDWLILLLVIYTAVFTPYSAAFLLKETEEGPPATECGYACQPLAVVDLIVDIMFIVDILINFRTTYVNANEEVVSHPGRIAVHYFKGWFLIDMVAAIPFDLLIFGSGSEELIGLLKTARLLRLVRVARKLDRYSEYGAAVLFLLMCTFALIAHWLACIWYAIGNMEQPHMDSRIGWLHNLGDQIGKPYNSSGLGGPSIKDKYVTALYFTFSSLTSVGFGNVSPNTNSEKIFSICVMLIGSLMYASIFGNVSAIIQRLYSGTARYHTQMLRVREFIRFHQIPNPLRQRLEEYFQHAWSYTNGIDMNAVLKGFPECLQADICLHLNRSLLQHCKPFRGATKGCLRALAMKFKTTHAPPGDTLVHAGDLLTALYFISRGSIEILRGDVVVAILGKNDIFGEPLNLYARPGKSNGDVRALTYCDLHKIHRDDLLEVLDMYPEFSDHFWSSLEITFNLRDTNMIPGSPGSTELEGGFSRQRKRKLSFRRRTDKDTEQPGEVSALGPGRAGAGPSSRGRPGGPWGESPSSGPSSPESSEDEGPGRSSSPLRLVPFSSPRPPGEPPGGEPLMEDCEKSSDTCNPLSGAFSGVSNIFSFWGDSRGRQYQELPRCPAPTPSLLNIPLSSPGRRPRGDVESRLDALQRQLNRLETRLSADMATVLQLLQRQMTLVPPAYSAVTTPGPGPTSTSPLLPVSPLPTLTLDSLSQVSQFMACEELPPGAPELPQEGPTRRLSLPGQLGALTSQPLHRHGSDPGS

[6] = target: Serine/threonine-protein kinase mTOR (Homo sapiens, UniProt P42345); test: Inhibition of C-terminal FLAG-tagged recombinant mTOR (1362 to 2549 residues) (unknown origin) using Biotin-Ahx-Lys-Lys-Ala-Asn-Gln-Val-Phe-Leu-Gly-Phe-Thr-Tyr-Val-Ala-Pro-Ser-Val-Leu-Glu-Ser-Val-Lys-Glu-NH2 as substrate after 90 mins by AlphaScreen assay
[7] = target: Phosphatidylinositol 4,5-bisphosphate 3-kinase catalytic subunit alpha isoform (Homo sapiens, UniProt P42336); test: Inhibition of human recombinant PI3Kalpha using PIP2/ATP as substrate incubated for 20 mins followed by substrate addition by Kinase Glo reagent based luminescence assay
Sequence of Phosphatidylinositol 4,5-bisphosphate 3-kinase catalytic subunit alpha isoform (P42336 whole entry, canonical isoform): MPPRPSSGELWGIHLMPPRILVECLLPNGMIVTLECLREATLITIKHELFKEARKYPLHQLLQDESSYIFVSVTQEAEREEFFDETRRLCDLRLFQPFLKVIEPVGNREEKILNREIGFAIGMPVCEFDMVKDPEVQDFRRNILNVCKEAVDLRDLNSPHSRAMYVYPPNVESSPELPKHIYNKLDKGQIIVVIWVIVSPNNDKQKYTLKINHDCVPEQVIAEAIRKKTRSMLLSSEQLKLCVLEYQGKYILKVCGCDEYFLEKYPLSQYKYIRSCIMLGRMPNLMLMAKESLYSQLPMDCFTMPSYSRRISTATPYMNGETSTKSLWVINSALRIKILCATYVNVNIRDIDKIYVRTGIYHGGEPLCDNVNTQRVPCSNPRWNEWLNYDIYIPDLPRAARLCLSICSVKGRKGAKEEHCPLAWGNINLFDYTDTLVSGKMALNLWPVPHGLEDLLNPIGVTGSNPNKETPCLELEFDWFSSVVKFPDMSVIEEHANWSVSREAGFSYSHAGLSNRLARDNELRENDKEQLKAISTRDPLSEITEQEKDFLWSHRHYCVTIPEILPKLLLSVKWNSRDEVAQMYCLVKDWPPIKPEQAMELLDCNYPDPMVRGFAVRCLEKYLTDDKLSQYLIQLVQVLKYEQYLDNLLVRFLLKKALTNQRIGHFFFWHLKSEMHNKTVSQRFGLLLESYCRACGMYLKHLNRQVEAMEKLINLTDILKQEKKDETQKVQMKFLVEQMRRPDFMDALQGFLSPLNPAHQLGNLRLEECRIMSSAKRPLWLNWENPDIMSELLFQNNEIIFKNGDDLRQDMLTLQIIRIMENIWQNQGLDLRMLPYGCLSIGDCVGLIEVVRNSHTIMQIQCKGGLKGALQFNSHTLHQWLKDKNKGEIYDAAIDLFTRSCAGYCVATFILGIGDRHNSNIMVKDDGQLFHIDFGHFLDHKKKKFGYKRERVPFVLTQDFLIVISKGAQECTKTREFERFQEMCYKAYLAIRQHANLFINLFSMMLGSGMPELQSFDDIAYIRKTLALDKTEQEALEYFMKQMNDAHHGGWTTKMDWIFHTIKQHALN

[8] = target: Phosphatidylinositol 4,5-bisphosphate 3-kinase catalytic subunit beta isoform (Homo sapiens, UniProt P42338); test: Inhibition of human recombinant PI3Kbeta using PIP2/ATP as substrate incubated for 20 mins followed by substrate addition by Kinase Glo reagent based luminescence assay
[9] = target: Phosphatidylinositol 4,5-bisphosphate 3-kinase catalytic subunit gamma isoform (Homo sapiens, UniProt P48736); test: Inhibition of human recombinant PI3Kgamma using PIP2/ATP as substrate incubated for 20 mins followed by substrate addition by Kinase Glo reagent based luminescence assay
[10] = target: DNA-dependent protein kinase catalytic subunit (Homo sapiens, UniProt P78527); test: Inhibition of DNAPK (unknown origin) using p53-based peptide substrate preincubated for 5 min prior to ATP addition
[11] = target: Glycogen synthase kinase-3 beta (Homo sapiens, UniProt P49841); test: Inhibition of GSK3beta (unknown origin)
[12] = target: Vascular endothelial growth factor receptor 2 (Homo sapiens, UniProt P35968); test: Inhibition of KDR (unknown origin)
[13] = target: T1, Serine-protein kinase ATM; test: Inhibition of ATM (unknown origin) using p53 as substrate incubated for 30 mins followed by substrate addition measured after 2 hrs in presence of ATP by HTRF method
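Throughout, for logD: determined by the shake flask method.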

Row | SMILES | pIC50 [1] | pIC50 [2] | hepatocyte CLint at 1.5 h (in vitro [3]) [µL/min/1e6 cells] | hepatocyte CLint at 1.5 h (in vitro [4]) [µL/min/1e6 cells] | logD (physchem) | pIC50 [6] | pIC50 [7] | pIC50 [8] | pIC50 [9] | pIC50 [10] | pIC50 [11] | pIC50 [12] | pIC50 [13] | pIC50 [5]
1 | CNC(=O)c1cnc2ccc(-c3cccnc3)cc2c1N[C@H](C)c1ccc(Cl)cc1 | < 4.52 | < 4.52 | – | – | – | – | – | – | – | – | – | – | – | –
2 | NC(=O)c1cnc2c(Cl)cc(-c3cccnc3)cc2c1NC1CCOCC1 | < 4.52 | < 4.52 | < 1 | 7.3 | 2.1 | – | – | – | – | – | – | – | – | –
3 | NC(=O)c1cnc2cc(Cl)c(-c3cccnc3)cc2c1NC1CCOCC1 | 5.49 | < 4.52 | 4.3 | 15 | 2.7 | – | – | – | – | – | – | – | – | 5.92
4 | COCc1ccc(-c2cc3c(N[C@@H](C)c4nn(C)cc4F)c(C(N)=O)cnc3cc2F)cn1 | 7.72 | < 4.52 | 5.5 | 4.8 | 3 | – | – | – | – | – | – | – | – | –
5 | C[C@H](Nc1c(C(N)=O)cnc2ccc(-c3cccnc3)cc12)c1ccn(C)n1 | 6.91 | 6.19 | 10 | 31 | 2.5 | – | – | – | – | – | – | – | – | 4.96
6 | NC(=O)c1cnc2ccc(-c3cccnc3)cc2c1NC1CCCCC1 | 6.88 | 5.49 | 34 | 70 | 3.8 | – | – | – | – | – | – | – | – | –
7 | CCC(CC)CNc1c(C(N)=O)cnc2ccc(-c3ccc(C)nc3)cc12 | 7.30 | 5.26 | 7.3 | 150 | > 4.3 | – | – | – | – | – | – | – | – | –
8 | C[C@@H](Nc1c(C(N)=O)cnc2ccc(-c3cccnc3)cc12)c1ccn(C)n1 | 5.95 | < 4.74 | 3.4 | 120 | 2.3 | – | – | – | – | – | – | – | – | 5.55
9 | CCC(CC)CNc1c(C(N)=O)cnc2ccc(-c3cccnc3)cc12 | 7.14 | < 4.96 | 43 | 140 | 4 | – | – | – | – | – | – | – | – | –
10 | NC(=O)c1cnc2cc(F)c(-c3cccnc3)cc2c1NC1CCOCC1 | 6.22 | < 4.52 | 5.5 | 13 | 2.1 | – | – | – | – | – | – | – | – | –
11 | COc1cc2ncnc(-n3nc(-c4ccccn4)nc3N)c2cc1OC | – | < 4.52 | 4.5 | 89 | 2.6 | 5.34 | 5.83 | 5.26 | < 6.00 | 6.06 | – | – | – | –
12 | NC(=O)c1cnc2ccc(-c3cccnc3)c(F)c2c1NC1CCOCC1 | < 4.52 | < 4.52 | < 3 | 11 | 1.5 | – | – | – | – | – | – | – | – | 4.89
13 | CCC(CC)CNc1c(C(N)=O)cnc2ccc(-c3ccc(COC)cc3)cc12 | 6.43 | < 4.52 | 21 | 76 | 4.1 | – | – | – | – | – | – | – | – | 4.74
14 | CCC(CC)CNc1c(C(N)=O)cnc2ccc(-c3ccnnc3)cc12 | 6.04 | 5.59 | 18 | 95 | 3.1 | – | – | – | – | – | – | – | – | –
15 | C[C@@H](Nc1c(C(=O)O)cnc2ccc(-c3cccnc3)cc12)c1ccc(Cl)cc1 | < 4.52 | < 4.52 | – | – | – | – | – | – | – | – | – | – | – | –
16 | C[C@@H]1CN(CC(=O)Nc2ccc3c(c2)Cc2cccc(-c4cc(=O)cc(N5CCOCC5)o4)c2S3)C[C@H](C)O1 | – | – | 13 | 22 | 3.6 | 5.18 | 6.34 | 5.67 | < 6.00 | – | – | – | – | –

More lines, main results first:

Row | pIC50 [1] | pIC50 [2] | hepatocyte CLint at 1.5 h (in vitro [3]) [µL/min/1e6 cells] | hepatocyte CLint at 1.5 h (in vitro [4]) [µL/min/1e6 cells] | logD (physchem) | pIC50 [6] | pIC50 [7] | pIC50 [8] | pIC50 [9] | pIC50 [10] | pIC50 [11] | pIC50 [12] | pIC50 [13] | SMILES | pIC50 [5]
17 | 6.28 | 5.15 | – | – | – | – | – | – | – | – | – | – | – | CCC(CC)CNc1c(C(N)=O)cnc2ccc(-c3cnn(C)c3)cc12 | –
18 | < 4.52 | < 4.52 | 6 | 43 | 2.7 | – | – | – | – | – | – | – | – | CCC(CC)CNc1c(C(N)=O)c(C)nc2ccc(-c3cccnc3)cc12 | 6.17
19 | < 4.52 | < 4.52 | – | – | – | – | – | – | – | – | – | – | – | NC(=O)c1cnc2c(F)cc(-c3cccnc3)cc2c1NC1CCOCC1 | –
20 | 6.77 | < 4.85 | 14 | 38 | 2.5 | – | – | – | – | – | – | – | – | C[C@H](Nc1c(C(N)=O)cnc2ccc(-c3cccnc3)cc12)C1CCOCC1 | 5.44
21 | < 4.52 | < 4.52 | – | – | – | – | – | – | – | – | – | – | – | C[C@@H](Nc1ccnc2ccc(-c3cccnc3)cc12)c1ccc(Cl)cc1 | –
22 | 6.02 | 5.51 | < 4.2 | 8.5 | 1.9 | – | – | – | – | – | – | – | – | NC(=O)c1cnc2ccc(-c3cccnc3)cc2c1NC1CCOCC1 | –
23 | – | < 4.52 | 33 | 230 | 4 | 5.25 | 6.34 | 6.88 | < 6.00 | – | – | – | – | O=c1cc(-c2cccc3c2Sc2ccccc2S3)oc(N2CCOCC2)c1 [KU-55933] | –
24 | 6.24 | < 4.82 | – | – | – | – | – | – | – | – | – | – | – | CCC(CC)CNc1c(C(N)=O)cnc2ccc(-c3cccnn3)cc12 | –
25 | 7.28 | < 4.52 | – | – | – | – | – | – | – | – | – | – | – | COCc1ccc(-c2cc3c(N[C@@H](C)C4CCOCC4)c(C(N)=O)cnc3cc2F)cn1 | –
26 | – | < 4.52 | – | – | – | – | – | – | – | – | – | – | – | COCc1ccc(-c2cc3c(N[C@@H](C)c4ccn(C)n4)c(C(N)=O)cnc3cc2F)c(F)n1 | –
27 | 5.22 | < 4.52 | – | – | – | – | – | – | – | – | – | – | – | CCC(CC)CNc1c(C(N)=O)cnc2c(C)cc(-c3cccnc3)cc12 | –
28 | 7.20 | < 4.60 | 5.7 | 6.4 | 2.6 | – | – | – | – | – | – | – | – | COCc1ccc(-c2ccc3ncc(C(N)=O)c(N[C@@H](C)c4ccn(C)n4)c3c2)c(F)n1 | –
29 | 5.49 | 4.96 | 12 | 19 | 2.1 | – | – | – | – | – | – | – | – | NC(=O)c1cnc2ccc(-c3cccnc3)cc2c1NCC1CCOCC1 | –
30 | 5.01 | < 4.64 | 18 | 120 | 3.2 | – | – | – | – | – | – | – | – | NC(=O)c1cnc2ccc(-c3cccnc3)cc2c1SC1CCCC1 | 5.29
31 | 6.86 | 5.92 | 23 | 65 | 3.6 | – | – | – | – | – | – | – | – | NC(=O)c1cnc2ccc(-c3cccnc3)cc2c1NC1CCCC1 | 6.24
32 | 5.74 | < 4.74 | 46 | 140 | 3.3 | – | – | – | – | – | – | – | – | CCC(CC)CNc1c(C(N)=O)cnc2ccc(-c3cncnc3)cc12 | –
33 | 7.06 | < 4.89 | 150 | > 300 | 3.7 | – | – | – | – | – | – | – | – | CCC(CC)CNc1c(C(N)=O)cnc2ccc(-c3ccc(CO)nc3)cc12 | 5.51
34 | 7.35 | < 4.52 | < 6.8 | 110 | > 4.3 | – | – | – | – | – | < 4.00 | 4.09 | – | CCC(CC)CNc1c(C(N)=O)cnc2ccc(-c3ccc(COC)nc3)cc12 | 5.60
35 | 6.38 | 6.14 | 37 | 76 | 3.3 | – | – | – | – | – | – | – | – | CCC(CC)CNc1c(C(N)=O)cnc2ccc(-c3ccncc3)cc12 | –
36 | 7.15 | < 4.52 | 23 | 210 | 3.5 | – | – | – | – | – | – | – | – | CCC(CC)CNc1c(C(N)=O)cnc2ccc(-c3ccc(CS(C)(=O)=O)cc3)cc12 | 5.68
37 | 4.84 | 5.33 | 10 | 41 | 3.5 | 6.07 | 7.44 | 6.86 | 6.69 | 6.96 | – | – | 7.31 | C[C@@H](Nc1c(C(N)=O)cnc2ccc(C#N)cc12)c1ccc(Cl)cc1 | –
38 | 7.41 | < 4.52 | 15 | 200 | 3.1 | – | – | – | – | – | – | – | – | CCC(CC)CNc1c(C(N)=O)cnc2ccc(-c3ccc(CS(C)(=O)=O)nc3)cc12 | 5.72
39 | 6.14 | 5.46 | 14 | 46 | 2.3 | – | – | – | – | – | – | – | – | C[C@@H](Nc1c(C(N)=O)cnc2ccc(-c3cccnc3)cc12)C1CCOCC1 | 5.37
40 | 6.34 | 5.52 | 40 | 130 | > 4.3 | – | – | – | – | – | – | – | – | NC(=O)c1cnc2ccc(-c3cccnc3)cc2c1NCC1CCCCC1 | 6.08
